Reference: patent US5977133A, “Pyridone antibiotic with improved safety profile” (priority 1998, dated 1999)
Converted amounts (≈) assume the structure as drawn.

Experiments:
[1] = system: S. aureus (CiproS); assay: In vitro MIC, agar dilution; assay type: cell-based; conditions: Staphylococcus aureus
[2] = system: S. aureus (CiproR); assay: In vitro MIC, agar dilution; assay type: cell-based; conditions: Staphylococcus aureus
[3] = system: S. epidermidis (CiproS); assay: In vitro MIC, agar dilution; assay type: cell-based; conditions: Staphylococcus epidermidis
[4] = system: S. epidermidis (CiproR); assay: In vitro MIC, agar dilution; assay type: cell-based; conditions: Staphylococcus epidermidis
[5] = system: S. pneumoniae (PenS); assay: In vitro MIC, agar dilution; assay type: cell-based; conditions: Streptococcus pneumoniae
[6] = system: S. pneumoniae (PenR); assay: In vitro MIC, agar dilution; assay type: cell-based; conditions: Streptococcus pneumoniae
[7] = system: S. pneumoniae (CiproR); assay: In vitro MIC, agar dilution; assay type: cell-based; conditions: Streptococcus pneumoniae, read-out: MIC Range
[8] = system: S. pyogenes; assay: In vitro MIC, agar dilution; assay type: cell-based; conditions: Streptococcus pyogenes
[9] = system: E. faecium (CiproS); assay: In vitro MIC, agar dilution; assay type: cell-based; conditions: Enterococcus faecium
[10] = system: E. faecium (VanS); assay: In vitro MIC, agar dilution; assay type: cell-based; conditions: Enterococcus faecium
[11] = system: E. faecalis (VanS); assay: In vitro MIC, agar dilution; assay type: cell-based; conditions: Enterococcus faecalis
[12] = system: Enterococcus spp. (VanR); assay: In vitro MIC, agar dilution; assay type: cell-based; conditions: Enterococcus
[13] = system: E. coli; assay: In vitro MIC, agar dilution; assay type: cell-based; conditions: Escherichia coli, 25 isolates
Procedure, shortened: (§1)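 Agar dilution plates were inoculated with ~10^4 CFU per spot by replicator, using 1:100 dilutions (1:10 for slow growers) and incubated at 35–37 °C for 20–24 h. MIC is the lowest concentration giving no growth, where slight haze or sparse colonies count as none, judged against a compound-free BHI agar control.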

[14] = system: Salmonella spp.; assay: In vitro MIC, agar dilution; assay type: cell-based; conditions: 23 isolates
Procedure, shortened: as §1

[15] = system: Shigella spp.; assay: microbe, parasite or virus in culture; assay type: cell-based; conditions: read-out: MIC Range
[16] = system: Klebsiella spp.; assay: In vitro MIC, agar dilution; assay type: cell-based; conditions: Klebsiella
[17] = system: C. freundii; assay: In vitro MIC, agar dilution; assay type: cell-based; conditions: Citrobacter freundii
[18] = system: P. mirabilis; assay: In vitro MIC, agar dilution; assay type: cell-based; conditions: Proteus mirabilis
[19] = system: Providencia spp.; assay: In vitro MIC, agar dilution; assay type: cell-based
[20] = system: Enterobacter spp.; assay: In vitro MIC, agar dilution; assay type: cell-based; conditions: Enterobacter
[21] = system: P. aeruginosa (CiproS); assay: In vitro MIC, agar dilution; assay type: cell-based; conditions: Pseudomonas aeruginosa
[22] = system: P. aeruginosa (CiproR); assay: In vitro MIC, agar dilution; assay type: cell-based
[23] = system: B. fragilis; assay: In vitro MIC, agar dilution; assay type: cell-based; conditions: Bacteroides fragilis
[24] = system: C. difficile; assay: In vitro MIC, agar dilution; assay type: cell-based; conditions: Clostridioides difficile
[25] = system: H. influenzae; assay: In vitro MIC, agar dilution; assay type: cell-based; conditions: Haemophilus influenzae
[26] = system: M. catarrhalis; assay: In vitro MIC, agar dilution; assay type: cell-based; conditions: Moraxella catarrhalis
[27] = system: Legionella spp.; assay: microbe, parasite or virus in culture; assay type: cell-based; conditions: Legionella
[28] = system: M. pneumoniae; assay: In vitro MIC, agar dilution; assay type: cell-based; conditions: Mycoplasmoides pneumoniae, read-out: MIC Range
[29] = system: N. gonorrhoeae; assay: In vitro MIC, agar dilution; assay type: cell-based; conditions: Neisseria gonorrhoeae
[30] = system: H. pylori; assay: In vitro MIC, agar dilution; assay type: cell-based; conditions: Helicobacter pylori
[31] = system: M. avium; assay: In vitro MIC, agar dilution; assay type: cell-based; conditions: Mycobacterium avium
[32] = system: ciprofloxacin resistant staphylococcal strains; assay: In vitro MIC, agar dilution (summary in text); assay type: cell-based
[33] = system: staphylococcus aureus NTCC 10649; assay: In vivo efficacy, mouse infection (ED50); conditions: Staphylococcus aureus, NTCC10649, in Mus musculus, 168 h
[34] = system: Streptococcus pneumoniae 6303; assay: In vivo efficacy, mouse infection (ED50); conditions: Streptococcus pneumoniae, 6303, in Mus musculus, 168 h
[35] = system: Escherichia coli JUHL; assay: In vivo efficacy, mouse infection (ED50); conditions: Escherichia coli, in Mus musculus, 168 h

Compound O=C(O)c1cn(C2CC2)c2cc(N3CCNCC3)c(F)cc2c1=O [Ciprofloxacin, ciprofloxacin] has an MIC50 [1] of 0.25 µg/mL (≈ 0.754 µM), an MIC90 [1] of 0.5 µg/mL (≈ 1.51 µM) and an MIC ([1]; read-out: MIC Range) of 0.06 to 0.5 µg/mL (≈ 0.181 to 1.51 µM). It also gave an MIC50 [2] of 32 µg/mL (≈ 96.6 µM), an MIC90 [2] of 128 µg/mL (≈ 386 µM) and an MIC50 [3] of 0.25 µg/mL (≈ 0.754 µM). For the same compound, the MIC90 [3] was 0.25 µg/mL (≈ 0.754 µM), the MIC ([3]; read-out: MIC Range) was 0.06 to 0.5 µg/mL (≈ 0.181 to 1.51 µM) and the MIC50 [4] was 16 µg/mL (≈ 48.3 µM). For the same compound, the MIC90 [4] was greater than 128 µg/mL, the MIC50 [5] was 2 µg/mL (≈ 6.04 µM) and the MIC90 [5] was 4 µg/mL (≈ 12.1 µM). The MIC ([5]; read-out: MIC Range) was 1 to 8 µg/mL (≈ 3.02 to 24.1 µM), the MIC50 [6] was 2 µg/mL (≈ 6.04 µM) and the MIC90 [6] was 2 µg/mL (≈ 6.04 µM). The MIC ([6]; read-out: MIC Range) was 1 to 2 µg/mL (≈ 3.02 to 6.04 µM), the MIC [7] was 4 to 8 µg/mL (≈ 12.1 to 24.1 µM) and the MIC50 [8] was 0.5 µg/mL (≈ 1.51 µM). It also gave an MIC90 [8] of 1 µg/mL (≈ 3.02 µM), an MIC ([8]; read-out: MIC Range) of 0.25 to 4 µg/mL (≈ 0.754 to 12.1 µM) and an MIC50 [9] of 2 µg/mL (≈ 6.04 µM). The MIC90 [9] was 4 µg/mL (≈ 12.1 µM), the MIC ([9]; read-out: MIC Range) was 2 to 4 µg/mL (≈ 6.04 to 12.1 µM) and the MIC50 [10] was 4 µg/mL (≈ 12.1 µM). It also gave an MIC90 [10] of 4 µg/mL (≈ 12.1 µM), an MIC ([10]; read-out: MIC Range) of 1 to 4 µg/mL (≈ 3.02 to 12.1 µM) and an MIC50 [11] of 2 µg/mL (≈ 6.04 µM). The MIC90 [11] was 4 µg/mL (≈ 12.1 µM), the MIC ([11]; read-out: MIC Range) was 1 to 4 µg/mL (≈ 3.02 to 12.1 µM) and the MIC50 [12] was 4 µg/mL (≈ 12.1 µM). For the same compound, the MIC90 [12] was 4 µg/mL (≈ 12.1 µM), the MIC [13] was 0.008 to 0.03 µg/mL (≈ 0.0241 to 0.0905 µM) and the MIC50 ([13]; read-out: MIC50) was 0.03 µg/mL (≈ 0.0905 µM). It also gave an MIC90 ([13]; read-out: MIC90) of 0.03 µg/mL (≈ 0.0905 µM), an MIC [14] of 0.004 to 0.5 µg/mL (≈ 0.0121 to 1.51 µM) and an MIC50 ([14]; read-out: MIC50) of 0.03 µg/mL (≈ 0.0905 µM). It also gave an MIC90 ([14]; read-out: MIC90) of 0.03 µg/mL (≈ 0.0905 µM), an MIC [15] of 0.008 to 0.015 µg/mL (≈ 0.0241 to 0.0453 µM) and an MIC50 [16] of 0.06 µg/mL (≈ 0.181 µM). The MIC90 [16] was 0.12 µg/mL (≈ 0.362 µM), the MIC ([16]; read-out: MIC Range) was 0.004 to 0.5 µg/mL (≈ 0.0121 to 1.51 µM) and the MIC50 [17] was 0.015 µg/mL (≈ 0.0453 µM). The MIC90 [17] was 0.12 µg/mL (≈ 0.362 µM), the MIC ([17]; read-out: MIC Range) was 0.004 to 0.5 µg/mL (≈ 0.0121 to 1.51 µM) and the MIC50 [18] was 0.015 µg/mL (≈ 0.0453 µM). The MIC90 [18] was 0.03 µg/mL (≈ 0.0905 µM), the MIC ([18]; read-out: MIC Range) was 0.015 to 0.06 µg/mL (≈ 0.0453 to 0.181 µM) and the MIC50 ([19]; Providencia) was 0.03 µg/mL (≈ 0.0905 µM). It also gave an MIC90 ([19]; Providencia) of 0.25 µg/mL (≈ 0.754 µM), an MIC ([19]; Providencia spp., 28 isolates, read-out: MIC Range) of 0.015 to 0.25 µg/mL (≈ 0.0453 to 0.754 µM) and an MIC50 [20] of 0.015 µg/mL (≈ 0.0453 µM). It also gave an MIC90 [20] of 0.03 µg/mL (≈ 0.0905 µM), an MIC ([20]; read-out: MIC Range) of 0.008 to 0.12 µg/mL (≈ 0.0241 to 0.362 µM) and an MIC50 [21] of 0.12 µg/mL (≈ 0.362 µM). For the same compound, the MIC90 [21] was 0.5 µg/mL (≈ 1.51 µM), the MIC ([21]; read-out: MIC Range) was 0.06 to 2 µg/mL (≈ 0.181 to 6.04 µM) and the MIC50 ([22]; Pseudomonas aeruginosa) was 64 µg/mL (≈ 193 µM). For the same compound, the MIC90 ([22]; Pseudomonas aeruginosa) was 128 µg/mL (≈ 386 µM), the MIC90 ([22]; ciprofloxacin resistant P. aeruginosa strains) was 128 (g/mL and the MIC50 [23] was 8 µg/mL (≈ 24.1 µM). It also gave an MIC90 [23] of 16 µg/mL (≈ 48.3 µM), an MIC ([23]; read-out: MIC Range) of 4 to 32 µg/mL (≈ 12.1 to 96.6 µM) and an MIC50 [24] of 16 µg/mL (≈ 48.3 µM). For the same compound, the MIC90 [24] was 16 µg/mL (≈ 48.3 µM), the MIC ([24]; read-out: MIC Range) was 16 µg/mL (≈ 48.3 µM) and the MIC50 [25] was 0.015 µg/mL (≈ 0.0453 µM). It also gave an MIC90 [25] of 0.015 µg/mL (≈ 0.0453 µM), an MIC ([25]; read-out: MIC Range) of 0.008 to 0.015 µg/mL (≈ 0.0241 to 0.0453 µM) and an MIC50 [26] of 0.03 µg/mL (≈ 0.0905 µM). It also gave an MIC90 [26] of 0.06 µg/mL (≈ 0.181 µM), an MIC ([26]; read-out: MIC Range) of 0.008 to 0.06 µg/mL (≈ 0.0241 to 0.181 µM) and an MIC50 [27] of 0.25 µg/mL (≈ 0.754 µM). It also gave an MIC90 [27] of 0.5 µg/mL (≈ 1.51 µM), an MIC ([27]; read-out: MIC Range) of 0.12 to 0.5 µg/mL (≈ 0.362 to 1.51 µM) and an MIC [28] of 1 to 2 µg/mL (≈ 3.02 to 6.04 µM). The MIC50 [29] was 0.008 µg/mL (≈ 0.0241 µM), the MIC90 [29] was 0.03 µg/mL (≈ 0.0905 µM) and the MIC ([29]; read-out: MIC Range) was 0.004 to 0.12 µg/mL (≈ 0.0121 to 0.362 µM). For the same compound, the MIC50 [30] was 0.5 µg/mL (≈ 1.51 µM), the MIC90 [30] was 0.5 µg/mL (≈ 1.51 µM) and the MIC ([30]; read-out: MIC Range) was 0.12 to 0.5 µg/mL (≈ 0.362 to 1.51 µM). For the same compound, the MIC50 [31] was 16 µg/mL (≈ 48.3 µM), the MIC90 [31] was 32 µg/mL (≈ 96.6 µM) and the MIC90 [32] was greater than 128 µg/mL. It also gave an ED50 ([33]; po) of 18.3 mg/kg, an ED50 ([33]; sc) of 3.1 mg/kg and an ED50 ([34]; po) greater than 100 mg/kg. It also gave an ED50 ([34]; sc) greater than 50 mg/kg, an ED50 ([35]; po) of 4.1 mg/kg and an ED50 ([35]; sc) of 1 mg/kg.
